According to patent publication US20060135494A1, “Methods of treating injuries of the nervous system associated with hemorrhage” (priority 2002, published 2006):

What was measured:
Format in all cases: in vivo
caspase-3-like proteases = test: DEVD-specific caspase activity in ICH rat brain tissue
Excerpt: All animals received humane care in compliance with the institute's guidelines as outlined in “Guide for the Care and Use of Laboratory Animals” prepared by the National Academy of Sciences and published by the National Institutes of Health (NIH publication no. 86-23, revised 1985). Female Sprague-Dawley rats (250-300 grams (g); Harlan Sprague-Dawley, Inc., Indianapolis, Ind.) were anesthesized with an intramuscular injection of a mixture of ketamine and xylazine and set in supine in a Kopf headholder. The right carotid artery, external and internal branches, was exposed and the distal end of the external carotid freed and retracted to line with the internal carotid. […]
Caspase activation was determined in dissected brain tissue from the ispilateral and corresponding contralateral areas. […] General caspase activity was evaluated by enzymatic cleavage of chromophore p-nitroanilide (pNA) from the substrate N-acetyl-Asp-Glu-Val-Asp-pNA (DEVD-pNA; Sigma Chemical Co.). […] The reaction mixtures were incubated at 37° C. for 1 hour, and the formation of pNA was measured at 405 nm using a 96-well plate reader. Protein concentrations were determined using the Bio-Rad protein assay kit (Bio-Rad Laboratories, Hercules, Calif.) according to the manufacturer's specifications.

Bcl-2, Bcl-xL, Bax = test: Bcl-2 family protein (immunoblot) and mRNA (RT-PCR) in ICH rat brain; details: TUDCA 10-200 mg/kg bw, ipsilateral hemisphere
Excerpt: All animals received humane care in compliance with the institute's guidelines as outlined in “Guide for the Care and Use of Laboratory Animals” prepared by the National Academy of Sciences and published by the National Institutes of Health (NIH publication no. 86-23, revised 1985). Female Sprague-Dawley rats (250-300 grams (g); Harlan Sprague-Dawley, Inc., Indianapolis, Ind.) were anesthesized with an intramuscular injection of a mixture of ketamine and xylazine and set in supine in a Kopf headholder. The right carotid artery, external and internal branches, was exposed and the distal end of the external carotid freed and retracted to line with the internal carotid. A PE-10 polyethylene tube (Becton-Dickinson, Sparks, Md.) was then introduced from the external into the internal carotid artery, and the former was ligated to hold the tube. TUDCA (Calbiochem-Novabiochem Corp., San Diego, Calif.) was dissolved in phosphate buffer, pH 7.4 at […] milligrams per milliliter (mg/ml). Saline or TUDCA solution (1 milliliter per kilogram body weight (ml/kg bw)) were injected directly into the internal carotid artery, within 5 minutes. Different concentrations of TUDCA (10, 50, 100, and 200 mg/kg bw) were administered 1 hour prior to, or 1, 3, and 6 hours after collagenase injection. The polyethylene tube was finally removed, the end of the external carotid artery cauterized, and the wound closed. To induce stroke injury, the animals were placed in a stereotaxic apparatus and ICH induced by collagenase infusion (Rosenberg et al., Stroke 1990;21:801-807 and Chesney et al., Stroke 1995;26:312-316). In brief, a midline incision was made through the scalp to expose the skull. […] (0.5 microliters per minute (μL/min)) of saline containing 0.5 unit (U) bacterial collagenase (type VII; Sigma Chemical Co., St. Louis, Mo.) was made stereotaxically into the striatum with a 10-μl Hamilton syringe at the following coordinates: 0.4 millimeter (mm) anterior and 3.0 mm lateral to bregma and 5.0 mm ventral to the cortical surface. Once the infusion was complete, the Hamilton syringe was left in place for 3 minutes. Body temperature was maintained at 37° C. with a CMA/150 temperature controller throughout the surgery. The rats recovered from surgery in a cage containing food and heated by an incandescent light bulb. Neurological testing was performed at 2 days after induction of ICH. The animals were then sacrificed, and the brains removed and frozen at −70° C. for either serial cryostat sectioning, or RNA and protein extraction. In a subset of animals, serum and brain samples were collected for bile acid analysis.
Changes in Bcl-2 family expression were determined by RT-PCR. Total RNA was extracted from brain tissue using the TRIZOL reagent from Life Technologies, Inc. (Grand Island, N.Y.). For RT-PCR, 5 μg of total RNA was reverse-transcribed using oligo(dT) (IDT, Inc., Coralville, Iowa) and SUPERSCRIPT II reverse transcriptase (Life Technologies Inc.). Specific oligonucleotide primer pairs were incubated with cDNA template for PCR amplification using the Expand High Fidelity PCR System from Roche Diagnostics, GmbH. […] Amplified PCR products were analyzed by agarose gel electrophoresis and ethidium bromide staining. […]

[1] = tested on: NF-κB/IκBα protein complex; test: Immunoblotting and immunohistochemistry of NF-κB/IκBα in ICH rat brain
Excerpt: All animals received humane care in compliance with the institute's guidelines as outlined in “Guide for the Care and Use of Laboratory Animals” prepared by the National Academy of Sciences and published by the National Institutes of Health (NIH publication no. 86-23, revised 1985). Female Sprague-Dawley rats (250-300 grams (g); Harlan Sprague-Dawley, Inc., Indianapolis, Ind.) were anesthesized with an intramuscular injection of a mixture of ketamine and xylazine and set in supine in a Kopf headholder. The right carotid artery, external and internal branches, was exposed and the distal end of the external carotid freed and retracted to line with the internal carotid. A PE-10 polyethylene tube (Becton-Dickinson, Sparks, Md.) was then introduced from the external into the internal carotid artery, and the former was ligated to hold the tube. TUDCA (Calbiochem-Novabiochem Corp., San Diego, Calif.) was dissolved in phosphate buffer, pH 7.4 at 400 milligrams per milliliter (mg/ml). Saline or TUDCA solution (1 milliliter per kilogram body weight (ml/kg bw)) were injected directly into the internal carotid artery, within 5 minutes. […]
Bcl-2 family, NF-κB, IκB, p-Akt, and p-Bad protein levels were determined from total protein homogenates separated by 12% sodium dodecyl sulfate polyacrylamide gel electrophoresis (SDS-PAGE). […]

## C[C@H](CCC(=O)NCCS(=O)(=O)O)[C@H]1CC[C@H]2[C@@H]3[C@@H](O)C[C@@H]4C[C@H](O)CC[C@]4(C)[C@H]3CC[C@]12C [TUDCA, tauroursodeoxycholic acid]
caspase-3-like proteases; 100 mg/kg bw TUDCA, time-course 1 hour before to 6 hours after collagenase
  caspase activity versus vehicle-injected animals: remained markedly lower
caspase-3-like proteases; 100 and 200 mg/kg bw TUDCA 1 hour before collagenase
  reduction of caspase activation in the lesioned hemisphere: 45-60%
Bcl-2, Bcl-xL, Bax
  Bax protein: returned to contralateral hemisphere values
  Bcl-XL mRNA (RT-PCR, words): decreased
  Bcl-xL protein levels: slightly diminished
  transcriptional activation of Bcl-2 (mRNA, RT-PCR, words): further increased
Bcl-2, Bcl-xL, Bax; dose-response study
  Bcl-2 protein levels: remained elevated
[1]; 100 mg/kg bw TUDCA, 2 days after ICH
  NF-κB activation in the peri-ICH region (immunohistochemistry, words): markedly decreased
[1]; increasing doses of TUDCA (10-200 mg/kg bw) 1 hour before collagenase, ipsilateral hemisphere
  IκBα protein level (Western blot, words): largely restored
